Reference: patent US9895369B2, “Stable and soluble formulations of receptor tyrosine kinase inhibitors, and methods of preparation thereof” (ForSight Vision4, Inc., priority 2014, dated 2018)

Legend:
[1] = pH comparison of pazopanib/CAPTISOL solutions with similar composition; format: physicochemical; conditions: about 22.4 mg pazopanib salt + about 157 mg CAPTISOL (1.5x molar ratio to drug) in 1 mL water
Description: From the results of the pH and the chloride content analysis it is concluded that the pharmaceutical ingredient from sample-1 contains 2-HCl per each pazopanib molecule, compared to active from sample-2, which contains only 1 HCl/per drug molecule.

[2] = Precipitation during ambient (room temperature) storage of the formulation; format: physicochemical; conditions: high drug concentration; crystallized out during storage and during drug release

Compound | pH, measured [1] | Stability of high concentration formulations (on shelf and upon dilution) [2]
Cc1ccc(Nc2nccc(N(C)c3ccc4c(C)n(C)nc4c3)n2)cc1S(N)(=O)=O [Pazopanib-Sample 1, 5-[[4-[(2,3-Dimethyl-2H-indazol-6-yl)methylamino]-2-pyrimidinyl]amino]-2-methylbenzolsulfonamide] | 1.68 | –
Cc1ccc(Nc2nccc(N(C)c3ccc4c(C)n(C)nc4c3)n2)cc1S(N)(=O)=O [Pazopanib-Sample 2 (1HCl), 5-[[4-[(2,3-Dimethyl-2H-indazol-6-yl)methylamino]-2-pyrimidinyl]amino]-2-methylbenzolsulfonamide] | 3.36 | very unstable
Cc1ccc(Nc2nccc(N(C)c3ccc4c(C)n(C)nc4c3)n2)cc1S(N)(=O)=O [Pazopanib-Sample 2-lyophilized-TFE (1HCl)] [5-[[4-[(2,3-Dimethyl-2H-indazol-6-yl)methylamino]-2-pyrimidinyl]amino]-2-methylbenzolsulfonamide] | 3.34 | –
